{"source": "patent US20190275145A1", "about": "“PARTICULATE VACCINE FORMULATIONS” (PDS BIOTECHNOLOGY CORPORATION, priority 2011, published 2019)", "tested_on": "HPV-positive tumors (TC-1 cells)", "test": "Tumor regression efficacy of R-DOTAP/S-DOTAP with HPV-16 E7 peptide antigen (encapsulated or micelles) in TC-1 tumor-bearing mice", "details": "mouse, in vivo", "protocol": "Subcutaneous HPV-positive tumors were established in mice by injecting […] TC-1 cells into the flank of each mouse on day 0. On day 6, the mice received a single subcutaneous injection of the formulations in a 0.10 ml injection.\nThe anti-tumor efficacy of vaccine formulations can be evaluated by evaluating tumor regression. In this example, the vaccine formulation comprises cationic lipid nanoparticles and a peptide antigen assembly in a tubular structure. Furthermore, the exemplary cationic lipid in the present example is R-DOTAP and the exemplary antigen assembly is an HPV-16 E7 micelle.\nIn this example, H-2Db restricted CTL epitope (amino acid 49-57, RAHYNIVTF [SEQ. ID. NO. 1]) derived from HPV 16 E7 protein was extended to amino acids 43-57, GQAEPDRAHYNIVTF, [SEQ. ID. No. 2]. SEQ. ID. No. 2 was then further extended with the amino acids KSS, and a hydrophobic palmitoyl chain was attached to the elongated peptide.\nHowever, formulating the peptide antigen sequence into a particulate structure comprised only of SEQ. ID. No. 3 allows higher doses of the antigen to be delivered compared to delivery via a cationic lipid adjuvant delivery system. Thus, an effective means of overcoming the weak antigenicity of the peptide can be obtained.\nTo evaluate this approach, HPV-positive tumors were established as described in Example 3 above. […]"}
{"sequence": "GQAEPDRAHYNIVTF (listed as Homo sapiens) [SEQ. ID. No. 2, HPV 16 E7 amino acids 43-57]", "values": [{"measurement": "antigenicity when formulated and evaluated", "result": "weak antigen"}]}
{"sequence": "RAHYNIVTF (listed as Homo sapiens) [SEQ. ID. No. 1]", "values": [{"measurement": "antigenicity when formulated and evaluated", "result": "weak antigen"}]}
